These results are taken from article PMC12426935, “On-Cell Saturation Transfer Difference NMR Spectroscopy on Ion Channels: Characterizing Negative Allosteric Modulator Binding Interactions of P2X7” (Journal of the American Chemical Society, 2025).

Assay [1] addresses T1, human P2X7 (WT hP2X7) (Homo sapiens, UniProt Q99572).
T1 sequence (Q99572 1-595): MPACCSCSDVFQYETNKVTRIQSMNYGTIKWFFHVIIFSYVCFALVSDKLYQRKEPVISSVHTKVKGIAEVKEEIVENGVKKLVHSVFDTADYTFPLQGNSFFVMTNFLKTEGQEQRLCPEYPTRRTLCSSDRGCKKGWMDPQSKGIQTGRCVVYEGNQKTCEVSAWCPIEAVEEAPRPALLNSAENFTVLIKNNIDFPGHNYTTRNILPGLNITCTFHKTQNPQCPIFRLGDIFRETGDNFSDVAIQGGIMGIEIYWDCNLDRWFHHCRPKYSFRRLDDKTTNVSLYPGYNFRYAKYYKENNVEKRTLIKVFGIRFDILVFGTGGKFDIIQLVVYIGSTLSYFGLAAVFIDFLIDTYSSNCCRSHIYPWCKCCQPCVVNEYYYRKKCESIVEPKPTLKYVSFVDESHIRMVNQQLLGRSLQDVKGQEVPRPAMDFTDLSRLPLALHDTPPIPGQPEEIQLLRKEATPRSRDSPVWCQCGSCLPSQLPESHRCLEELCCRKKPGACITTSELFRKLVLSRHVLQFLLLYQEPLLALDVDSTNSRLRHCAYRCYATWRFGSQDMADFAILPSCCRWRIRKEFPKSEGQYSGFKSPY
The assay can be described thus: fura-2 intracellular calcium assay on HEK-293 stable cell line expressing human P2X7. Format: cell-based. On the procedure:
(§1) Transfection was performed using lipofectamine 2000 (Fisher Scientific), and cells were subjected to Geneticin (800 μg/mL) selection for 2–3 weeks. This was followed by single cell cloning by limiting dilution in 96-well plates. Individual clones were selected for further study based on ATP-induced TO-PRO-3 uptake on a BD Cytoflex flow cytometer. Cell lines were maintained in DMEM:F12 media supplemented with 10% fetal bovine serum (PanBiotech), penicillin and streptomycin (Fisher Scientific) and kept in a humidified incubator with 5% CO2. Stable P2X7-expressing cells were kept under Geneticin selection at a concentration of 400 μg/mL. Passaging was performed twice weekly using 0.25% Trypsin-EDTA (Fisher Scientific).
P2X7 responses were measured by monitoring intracellular calcium responses using fura-2AM loaded cells. Cells were plated at 2–2.5 × 10^4 cells/well the day before experiments in 96-well plates (NUNC) coated with 50 μg/mL poly-D-lysine (Merck Millipore). […] Responses were measured using a Flexstation 3 plate reader (Molecular Devices) with dual excitation wavelengths of 340 and 380 nm and single emission wavelength of 510 nm. The sample interval was 3.5 s, and each well was recorded for 180 s. Fura-2 ratios were calculated in Softmax Pro v5.4; zero baseline was applied, and responses were measured as normalized area under the curve (AUC). Dose inhibition curves were plotted using GraphPad Prism v6 nonlinear regression (three parameter fit) and log IC50 values reported.
(In general: A change in cytosolic calcium serves as a functional read-out for many receptors and channels.)

In assay [2] the target is T2, F103A hP2X7 (Homo sapiens, UniProt Q99572, F103A).
T2 sequence (Q99572 1-595 F103A): T1 sequence (Q99572 1-595) with F103A
As to the kind of experiment: fura-2 intracellular calcium assay on HEK-293 stable cell line expressing NAM-site mutant F103A hP2X7. Format: cell-based. The conditions noted are these: for IC50: n = 3. On the procedure: as §1
P2X7 responses were measured by monitoring intracellular calcium responses using fura-2AM loaded cells. Cells were plated at 2–2.5 × 10^4 cells/well the day before experiments in 96-well plates (NUNC) coated with 50 μg/mL poly-D-lysine (Merck Millipore). A loading buffer containing 2 μM fura-2AM (HelloBio) and 250 μM sulfinpyrazone (Merck Millipore) in a low divalent buffer (145 mM NaCl, 5 mM KCl, 0.2 mM CaCl2, 10 mM HEPES, 13 mM glucose, pH 7.3) was added to cells for 45 min at 37 °C. After loading, the buffer was removed and replaced with calcium-containing extracellular solution (145 mM NaCl, 5 mM KCl, 2 mM CaCl2, 10 mM HEPES, 13 mM glucose, pH 7.3). Responses were measured using a Flexstation 3 plate reader (Molecular Devices) with dual excitation wavelengths of 340 and 380 nm and single emission wavelength of 510 nm. The sample interval was 3.5 s, and each well was recorded for 180 s. Fura-2 ratios were calculated in Softmax Pro v5.4; zero baseline was applied, and responses were measured as normalized area under the curve (AUC). Dose inhibition curves were plotted using GraphPad Prism v6 nonlinear regression (three parameter fit) and log IC50 values reported.

Numbering of substitutions follows the chain as printed. Like-named read-outs stand apart in the source and are kept apart here.

Turning to `O=C(NCC1(N2CCN(c3ccccc3)CC2)CCOCC1)c1cccnc1Sc1ccccc1` [JNJ-47965567], the IC50 is 26 nM in assay [1]; 9.12 nM in assay [1] (Human P2X7, species comparison (Table 1), log IC50 ± standard error, n = 3, read-out: Log IC50 (converted)); 9 nM in assay [1] (Human P2X7, species comparison (Table 1), mean in brackets, n = 3, read-out: mean IC50); 11.9 nM in assay [1] (WT hP2X7, agonist ATP (Table 2), log IC50 ± standard error, n = 3, read-out: Log IC50 (converted)); 11.7 nM in assay [1] (WT hP2X7, agonist ATP (Table 2), mean in brackets, n = 3, read-out: mean IC50); 155 nM in assay [2] (F103A hP2X7, agonist ATP, log IC50 ± standard error, read-out: Log IC50 (converted)). Further, the IC50 came to 161 nM in assay [2] (F103A hP2X7, agonist ATP, mean in brackets, read-out: mean IC50) and 59.1 nM in assay [2] (F103A hP2X7, agonist BzATP, mean in brackets, read-out: mean IC50). Besides, in assay [2] (F103A hP2X7 vs hP2X7), the “loss in potency (increase in IC50) at F103A relative to WT hP2X7” value is on record as 10 fold.

In general, IC50 refers to the concentration needed to halve the response being measured.
